Patent US9890368B2, “Polypeptide fragments comprising endonuclease activity and their use” (priority 2008, dated 2018)

What was measured:
[1] = biological target: PA-Nter (SEQ ID NO: 22) (Influenza A virus, UniProt P31343, G154E); type: binding, Influenza A virus A/Victoria/3/1975 (H3N2)
[2] = biological target: PA-Nter (SEQ ID NO: 22) endonuclease (Influenza A virus, UniProt P31343, G154E); type: biochemical, Influenza A virus A/Victoria/3/1975 (H3N2)

Molecule | apparent melting temperature [1] [°C] | increase in thermal stability upon addition of divalent cation [1] | effect on thermal stability of metal-free enzyme [1] | thermal stability of PA-Nter in the presence of MnCl2 [1] | inhibition of endonuclease activity on both RNA and DNA [2]
manganese ions | 57 |  |  |  | 
calcium |  | to a lesser extent |  |  | 
O=C(O)C(=O)CC(=O)c1ccccc1 [DPBA, 2,4-Dioxo-4-phenylbutanoic acid] | 65 |  | no effect | further stabilizes | inhibited in a dose dependent manner
magnesium ions |  | to a lesser extent |  |  | 
